Assay results reported in patent publication US20100249163A1, “RENIN INHIBITORS” (priority 2007, published 2010).

What was measured:
human recombinant renin = molecular target: T1, human recombinant renin (Homo sapiens, UniProt P00797); assay: Renin IC50, QFRET (quenched fluorescence resonance energy transfer) assay; type: biochemical; details: FRET (quenched fluorescence resonance energy transfer) assay
T1 sequence (P00797 67-406): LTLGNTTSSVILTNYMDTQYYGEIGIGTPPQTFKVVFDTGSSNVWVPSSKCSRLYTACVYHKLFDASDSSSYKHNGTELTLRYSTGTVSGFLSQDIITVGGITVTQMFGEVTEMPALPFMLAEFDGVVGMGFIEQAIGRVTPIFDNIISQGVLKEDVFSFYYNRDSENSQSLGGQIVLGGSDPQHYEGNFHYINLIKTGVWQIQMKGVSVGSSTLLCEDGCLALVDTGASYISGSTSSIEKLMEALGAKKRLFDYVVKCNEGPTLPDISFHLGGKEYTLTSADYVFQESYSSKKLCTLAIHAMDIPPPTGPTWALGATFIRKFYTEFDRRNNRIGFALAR

renin in human plasma = molecular target: T2, renin in human plasma (Homo sapiens, UniProt P00797); assay: Inhibition of renin in human plasma; type: biochemical; details: human plasma assay
T2 construct: host or cells: recombinant enzyme added to human plasma from 10 normal donors
T2 sequence (P00797 67-406): T1 sequence (P00797 67-406)

Structure (SMILES): COCCCc1cc(CN(C(=O)[C@H]2CNCC[C@]2(OCc2cnn[nH]2)c2ccc(F)c(F)c2)C2CC2)cc(OCCOC)c1 [Example 51, (3S,4R)—N-cyclopropyl-4-(3,4-difluorophenyl)-N-[3-(2-methoxyethoxy)-5-(3-methoxypropyl)benzyl]-4-(1H-1,2,3-triazol-5-ylmethoxy)piperidine-3-carboxamide]
- IC50 (human recombinant renin): 3.9 nM
- IC50 (renin in human plasma): 21 nM

Structure (SMILES): COCCCc1cc(CN(C(=O)[C@H]2CNCC[C@]2(OCc2ccc(F)cc2)c2ccc(F)c(F)c2)C2CC2)cc(OCCOC)c1 [Example 48, (3S,4R)—N-cyclopropyl-4-(3,4-difluorophenyl)-4-[(4-fluorobenzyl)oxy]-N-[3-(2-methoxyethoxy)-5-(3-methoxypropyl)benzyl]piperidine-3-carboxamide]
- IC50 (human recombinant renin): 1.1 nM
- IC50 (renin in human plasma): 61 nM

Structure (SMILES): COCCCc1cc(CN(C(=O)[C@H]2CNCC[C@]2(OC)c2ccc(F)c(F)c2)C2CC2)cc(OCCOC)c1 (racemic) [Example 35, Rac-(3S,4R)—N-cyclopropyl-4-(3,4-difluorophenyl)-4-methoxy-N-[3-(2-methoxyethoxy)-5-(3-methoxypropyl)benzyl]piperidine-3-carboxamide]
- IC50 (human recombinant renin): 1 nM
- IC50 (renin in human plasma): 4.7 nM

Structure (SMILES): COCCCc1cc(CN(C(=O)[C@H]2CNCC[C@]2(O)c2ccn(C)c(=O)c2)C2CC2)cc(OCCOC)c1 (racemic) [Example 23, rac-(3S,4R)—N-cyclopropyl-4-hydroxy-N-[3-(2-methoxyethoxy)-5-(3-methoxypropyl)benzyl]-4-(1-methyl-2-oxo-1,2-dihydropyridin-4-yl)piperidine-3-carboxamide]
- IC50 (human recombinant renin): 76 nM
- IC50 (renin in human plasma): 136 nM

Structure (SMILES): COCCCc1cc(CN(C(=O)[C@H]2CNCC[C@]2(OCCOC)c2ccc(F)c(F)c2)C2CC2)cc(OCCOC)c1 [Example 49, (3S,4R)—N-cyclopropyl-4-(3,4-difluorophenyl)-4-(2-methoxyethoxy)-N-[3-(2-methoxyethoxy)-5-(3-methoxypropyl)benzyl]piperidine-3-carboxamide]
- IC50 (human recombinant renin): 2.7 nM
- IC50 (renin in human plasma): 11 nM

Structure (SMILES): COCCc1ccc(Cl)c(CN(C(=O)[C@H]2CNCC[C@]2(OCC(O)CO)c2ccc(F)c(F)c2)C2CC2)c1 (stereo partly drawn) [Example 54, (3S,4R)—N-[2-chloro-5-(2-methoxyethyl)benzyl]-N-cyclopropyl-4-(3,4-difluorophenyl)-4-(2,3-dihydroxypropoxy)piperidine-3-carboxamide]
- IC50 (human recombinant renin): 2.4 nM
- IC50 (renin in human plasma): 4.8 nM

Structure (SMILES): COCCCc1cc(CN(C(=O)[C@H]2CNCC[C@]2(O)c2cccnc2)C2CC2)cc(OCCOC)c1 (racemic) [Example 2, rac-(3S,4R)—N-cyclopropyl-4-hydroxy-N-[3-(2-methoxyethoxy)-5-(3-methoxypropyl)benzyl]-4-pyridin-3-ylpiperidine-3-carboxamide]
- IC50 (human recombinant renin): 140 nM
- IC50 (renin in human plasma): 280 nM
